The text below walks through data of patent US20240010653A1, “Crystalline Forms of 4-amino-N-[4-(methoxymethyl)phenyl]-7-(1-methylcyclopropyl)-6-(3-morpholinoprop-1-yn-1-yl)-7H-pyrrolo[2,3-d]pyrimidine-5-carboxamide” (Helsinn Healthcare SA, priority 2020, published 2024).

Where a name gives a salt, the structure may show the parent alone.

Holding throughout (type): physicochemical
A short description of data set [1]: Solid form (polymorph) stability on storage, followed by XRPD. To be noted: for Form stability (XRPD) after storage in a sealed vial: seven days in a sealed vial. The procedure: The stability of Form 4-bis was assessed after seven days of storage in a sealed vial.
HM06 1:2 HCl Form 4 exposed powder was stored overnight at room temperature under 43% RH.
The stability of the HM06 1:2 HCl Form 5-bis sample was assessed after 18 hours exposed to air and after one week in a sealed vial, both at room temperature.
Form 5-bis was measured after 18 hours exposed powder at room temperature. The % RH was approx. of 45%.
These changes could not be associated with conversion into one of the other isolated polymorphs observed during this study: thus, the sample was considered not stable.
HM06 1:2 HCl Form 5-bis was measured after seven days at room temperature in a sealed vial.
Form 6 was collected after evaporation of HM06 1:2 HCl Form 1 in a 1:1 acetonitrile/water solution at room temperature under low pressure.

Data set [2] is described as follows: Uptake of water from air by dehydrated form, followed by VP-XRPD. The note with it: after vacuum 0.07 mbar; ambient condition, RH about 80%. The procedure:
VP-XRPD measurements were performed on the Panalytical X'pert equipped with the Anton Paar TTK450 chamber which allowed for measurement of the powder in-situ at controlled temperature and/or under vacuum.
The first measurement was collected at RT and atmospheric pressure. The sample was then left for 15 minutes under vacuum (0.07 mbar).
The uptake of water by Form 1-bis was observed via XRPD by following the difference in the pattern in the range 2θ=25.5°-27-5° (see FIG. 5C). Under vacuum the highest peak is the peak at 2θ=26.7° while after exposure of the sample in air 2 minutes the highest is at 2θ=26.4°. The peak at 2θ=26.4° moves to 2θ=26.2° in 20 minutes. HM06 1:2 HCl crystalline Form 1-bis uptakes the water from the atmosphere as soon as the powder is exposed to the air, and it reaches the diffraction pattern of the starting material in 20 minutes (see […] 5D). This experiment was done in ambient condition with RH % of the room about at 80%.

The nature of data set [3]: Storage stability, accelerated conditions 40° C./75% relative humidity. The note with it: for HPLC assay (anhydrous) / HPLC purity: 12-HM06 / HPLC purity: impurity 12-HM06.il (RRT 0.92-.94) / HPLC purity: impurity RRT 0.56 / HPLC purity: impurity RRT 1.11 / HPLC purity: impurity RRT 1.20-1.24 / HPLC purity: impurity RRT 1.41-1.42 / Water content (KF) / XRPD: 40° C./75% relative humidity. The procedure: (§1) Samples of HM06 1:2 HCl Form 1 were subjected to accelerated storage conditions and long-term storage.
Samples of HM06 1:2 HCl Form 1 from the same lot were stored at 40° C. and 75% relative humidity for 24 months with testing at regular intervals.

Data set [4] is described as follows: Saturated solution in methanol. The note with it: room temperature. The procedure:
A saturated solution of HM06 1:2 HCl Form 1 in methanol approx. 50 mg/mL was prepared and allowed to stir at room temperature overnight (18 hours). After this time, it was filtered and left to evaporate at 25° C./700 mbar. The preparation of the sample plate sealed with Kapton film was performed under 40-45% RH. Some very minor signals of Form 1 were present.

Data set [5] in a line: Storage stability, long term conditions 25° C. and 60% relative humidity.
Text: as §1
Table 25 sets forth the sample analysis at times 0, 3 months, 6 months, 9 months, 12 months, 18 months, and 24 months.

Regarding `COCc1ccc(NC(=O)c2c(C#CCN3CCOCC3)n(C3(C)CC3)c3ncnc(N)c23)cc1` [HM06 1:2 HCl Form 4, 4-amino-N-[4-(methoxymethyl)phenyl]-7-(1-methylcyclopropyl)-6-(3-morpholinoprop-1-yn-1-yl)-7H-pyrrolo[2,3-d]pyrimidine-5-carboxamide], the “Form stability (XRPD) of exposed powder” value in data set [1] (stored overnight at room temperature under 43% RH) is reported as “No significant modifications”.

Turning to `COCc1ccc(NC(=O)c2c(C#CCN3CCOCC3)n(C3(C)CC3)c3ncnc(N)c23)cc1` [HM06 1:2 HCl Form 4-bis, 4-amino-N-[4-(methoxymethyl)phenyl]-7-(1-methylcyclopropyl)-6-(3-morpholinoprop-1-yn-1-yl)-7H-pyrrolo[2,3-d]pyrimidine-5-carboxamide], the “Form stability (XRPD) after storage in a sealed vial” value in data set [1] (listed as Form 4-bis) is given as “complete conversion into Form 1”.

For the molecule `COCc1ccc(NC(=O)c2c(C#CCN3CCOCC3)n(C3(C)CC3)c3ncnc(N)c23)cc1` [HM06 1:2 HCl Form 1-bis, 4-amino-N-[4-(methoxymethyl)phenyl]-7-(1-methylcyclopropyl)-6-(3-morpholinoprop-1-yn-1-yl)-7H-pyrrolo[2,3-d]pyrimidine-5-carboxamide], the “Time in air to reach the diffraction pattern of the starting material (Form 1) by uptake of water” value in data set [2] was found to be 20 min.

For the molecule `COCc1ccc(NC(=O)c2c(C#CCN3CCOCC3)n(C3(C)CC3)c3ncnc(N)c23)cc1` [HM06 1:2 HCl Form 5-bis, 4-amino-N-[4-(methoxymethyl)phenyl]-7-(1-methylcyclopropyl)-6-(3-morpholinoprop-1-yn-1-yl)-7H-pyrrolo[2,3-d]pyrimidine-5-carboxamide], the “Form stability (XRPD) of exposed powder” value in data set [1] (18 hours exposed to air at room temperature, approx. 45% RH) was “not stable”. The “Form stability (XRPD) after storage in a sealed vial” value in data set [1] was “started to convert into Form 1”.

As to `COCc1ccc(NC(=O)c2c(C#CCN3CCOCC3)n(C3(C)CC3)c3ncnc(N)c23)cc1` [HM06 1:2 HCl Form 1, 4-amino-N-[4-(methoxymethyl)phenyl]-7-(1-methylcyclopropyl)-6-(3-morpholinoprop-1-yn-1-yl)-7H-pyrrolo[2,3-d]pyrimidine-5-carboxamide], in data set [3] (0 months), the “HPLC assay (anhydrous)” value turned out to be 99%, the “HPLC purity: 12-HM06” value amounted to 99%, the “HPLC purity: impurity 12-HM06.il (RRT 0.92-.94)” value (shortened to “HPLC purity … (RRT 0.92-.94)”) stood at 0.51% and the “HPLC purity: impurity RRT 0.56” value is given as “not detected”. In data set [3] (0 months), the “HPLC purity: impurity RRT 1.11” value was “not detected”, the “HPLC purity: impurity RRT 1.20-1.24” value was determined as 0.20%, the “HPLC purity: impurity RRT 1.41-1.42” value was 0.06% and the “Water content (KF)” value is reported as 6%. In data set [3] (0 months), the XRPD entry was “Crystalline”. Besides, in data set [3] (1 month), the “HPLC assay (anhydrous)” value came to 100%, the “HPLC purity: 12-HM06” value is 99%, the “HPLC purity … (RRT 0.92-.94)” value came to 0.51% and the “HPLC purity: impurity RRT 0.56” value is recorded as “not detected”. Besides, in data set [3] (1 month), the “HPLC purity: impurity RRT 1.11” value was “not detected”, the “HPLC purity: impurity RRT 1.20-1.24” value was found to be 0.20%, the “HPLC purity: impurity RRT 1.41-1.42” value amounted to 0.06% and the “Water content (KF)” value was 6%. For the same molecule, in data set [3] (1 month), the XRPD entry is given as “Crystalline”. For the same molecule, in data set [3] (3 months), the “HPLC assay (anhydrous)” value came out at 102%, the “HPLC purity: 12-HM06” value amounted to 99%, the “HPLC purity … (RRT 0.92-.94)” value was 0.51% and the “HPLC purity: impurity RRT 0.56” value is “not detected”. Moreover, in data set [3] (3 months), the “HPLC purity: impurity RRT 1.11” value was “not detected”, the “HPLC purity: impurity RRT 1.20-1.24” value worked out at 0.20%, the “HPLC purity: impurity RRT 1.41-1.42” value turned out to be 0.06% and the “Water content (KF)” value is listed as 5%. In data set [3] (3 months), the XRPD entry is “Crystalline”. Moreover, in data set [3] (6 months), the “HPLC assay (anhydrous)” value came out at 98%, the “HPLC purity: 12-HM06” value was 99%, the “HPLC purity … (RRT 0.92-.94)” value came to 0.51% and the “HPLC purity: impurity RRT 0.56” value worked out at 0.05%. Further, in data set [3] (6 months), the “HPLC purity: impurity RRT 1.11” value was found to be 0.05%, the “HPLC purity: impurity RRT 1.20-1.24” value is recorded as 0.19%, the “HPLC purity: impurity RRT 1.41-1.42” value is 0.06% and the “Water content (KF)” value is on record as 5%. Also, the XRPD result in data set [3] (6 months) was “Crystalline”. Besides, the “Storage stability, overall result” value in data set [3] (accelerated storage conditions and long-term storage) is “remained stable and crystalline”. In addition, in data set [4], the “Concentration of saturated solution in methanol” value is recorded as “approx. 50 mg/mL”. In data set [5] (0 months), the “HPLC assay (anhydrous)” value is recorded as 99%, the “HPLC purity: 12-HM06” value is 99%, the “HPLC purity: impurity 12-HM06.il (RRT 0.92-0.94)” value (“HPLC purity … (RRT 0.92-0.94)” below) was 0.51% and the “HPLC purity: impurity RRT 1.20-1.24” value is reported as 0.20%. In data set [5] (0 months), the “HPLC purity: impurity RRT 1.41-1.42” value was determined as 0.06%, the “Water content (KF)” value stood at 6% and the XRPD entry was “Crystalline”. For the same molecule, in data set [5] (3 months), the “HPLC assay (anhydrous)” value is 102%, the “HPLC purity: 12-HM06” value came out at 99%, the “HPLC purity … (RRT 0.92-0.94)” value is 0.51% and the “HPLC purity: impurity RRT 1.20-1.24” value amounted to 0.20%. In data set [5] (3 months), the “HPLC purity: impurity RRT 1.41-1.42” value amounted to 0.06%, the “Water content (KF)” value is 5% and the XRPD entry is given as “Crystalline”. Besides, in data set [5] (6 months), the “HPLC assay (anhydrous)” value was found to be 99%, the “HPLC purity: 12-HM06” value is given as 99%, the “HPLC purity … (RRT 0.92-0.94)” value is listed as 0.51% and the “HPLC purity: impurity RRT 1.20-1.24” value amounted to 0.20%. In data set [5] (6 months), the “HPLC purity: impurity RRT 1.41-1.42” value is listed as 0.06%, the “Water content (KF)” value was determined as 5% and the XRPD entry was “Crystalline”. For the same molecule, in data set [5] (9 months), the “HPLC assay (anhydrous)” value came out at 99%, the “HPLC purity: 12-HM06” value is 99%, the “HPLC purity … (RRT 0.92-0.94)” value was determined as 0.51% and the “HPLC purity: impurity RRT 1.20-1.24” value is given as 0.20%. Moreover, in data set [5] (9 months), the “HPLC purity: impurity RRT 1.41-1.42” value is 0.06%, the “Water content (KF)” value is listed as 5% and the XRPD entry is recorded as “Crystalline”. Moreover, in data set [5] (12 months), the “HPLC assay (anhydrous)” value is 99%, the “HPLC purity: 12-HM06” value was 99%, the “HPLC purity … (RRT 0.92-0.94)” value came out at 0.51% and the “HPLC purity: impurity RRT 1.20-1.24” value worked out at 0.20%. In data set [5] (12 months), the “HPLC purity: impurity RRT 1.41-1.42” value came out at 0.06%, the “Water content (KF)” value was 6% and the XRPD entry is reported as “Crystalline”. In data set [5] (18 months), the “HPLC assay (anhydrous)” value turned out to be 97%, the “HPLC purity: 12-HM06” value is given as 99%, the “HPLC purity … (RRT 0.92-0.94)” value is reported as 0.51% and the “HPLC purity: impurity RRT 0.85” value is on record as 0.05%. In data set [5] (18 months), the “HPLC purity: impurity RRT 1.11” value worked out at 0.05%, the “HPLC purity: impurity RRT 1.20-1.24” value was 0.19%, the “HPLC purity: impurity RRT 1.41-1.42” value stood at 0.06% and the “Water content (KF)” value came out at 5%. Further, the XRPD entry in data set [5] (18 months) is “Crystalline”. Moreover, in data set [5] (24 months), the “HPLC assay (anhydrous)” value turned out to be 100%, the “HPLC purity: 12-HM06” value came to 99%, the “HPLC purity … (RRT 0.92-0.94)” value stood at 0.51% and the “HPLC purity: impurity RRT 0.85” value worked out at 0.06%. Besides, in data set [5] (24 months), the “HPLC purity: impurity RRT 1.20-1.24” value was 0.19%, the “HPLC purity: impurity RRT 1.41-1.42” value is listed as 0.06%, the “Water content (KF)” value was 6% and the XRPD entry is recorded as “Crystalline”.

As to `COCc1ccc(NC(=O)c2c(C#CCN3CCOCC3)n(C3(C)CC3)c3ncnc(N)c23)cc1` [HM06 1:2 HCl Form 6, 4-amino-N-[4-(methoxymethyl)phenyl]-7-(1-methylcyclopropyl)-6-(3-morpholinoprop-1-yn-1-yl)-7H-pyrrolo[2,3-d]pyrimidine-5-carboxamide], the “Form stability on storage” value in data set [1] (6 days of storage, room temperature under low pressure) is on record as “conversion into Form 1”.
